For one series, the system named is yeast. Nature of the series: Growth of yeast under methotrexate exposure. The series is classed as cell-based, Saccharomyces cerevisiae. The conditions noted are these: 100 μm methotrexate titration. Here is the method: To generate methotrexate dose response curves, an overnight starter culture of S.cerevisiae strain BY4741 (Genotype: Mat a his3Δ0 leu2D0 ura3Δ0 met15Δ0) was diluted into 200 ml of SC medium (see, e.g., Ausubel et al, ch. 13) to an OD600 of 0.1 and grown at 30° C. with 300 rpm shaking. After 30 min, methotrexate dissolved in water was added to cultures at final concentrations of 200, 100, 50, 25, 6.2, and 3.1 μM. Control cultures were treated with the same volume of water. The rest of the procedure was as above.

Another series deals with yeast gene YOL031C. As to the kind of experiment: Transcript array gene expression response to graded methotrexate exposure, Hill function fit. The series is classed as cell-based, Saccharomyces cerevisiae. The source says:
In model fitting, the drug and pathway responses are interpolated by approximating each by a single parameterized function. An exemplary model-fitting function appropriate for approximating transcriptional state data is the Hill function, which has adjustable parameters a, u0, and n. [formula]
The adjustable parameters are selected independently for each cellular constituent of the drug response and for each cellular constituent of the pathway response. Preferably, the adjustable parameters are selected so that for each cellular constituent of each pathway response the sum of the squares of the distances of H(pi,l) from Ri,k(pi,l) is minimized, and so that for each cellular constituent of the drug response the sum of the squares of the distances of H(tl) from Dk(tl) is minimized. This preferable parameter adjustment method is known in the art as a least squares fit of H( ) to Ri,k( ) or to Dk( ). Other possible model functions are based on polynomial fitting, for example by various known classes of polynomials.
Model fitting with a Hill function is illustrated with respect to FIGS. 3 and 4. As discussed, FIG. 3 illustrates an example of a pathway perturbed by methotrexate and identified by measurement. This figure illustrates the mRNA expression levels of 30 genes of the yeast S. cerevisiae that, of the approximately 6000 genes in the genome of this yeast, had the largest expression changes in response to six different exposure levels of methotrexate. FIG. 4 illustrates a fit of the pathway response of one of these gene expression levels by a Hill function. […]
In all cases, polyA^+ RNA was isolated by oligo-dT cellulose chromatography using two selections by standard protocols (see, e.g., Sambrook et al. 1989, Molecular Cloning A Laboratory Manual, Cold Spring Harbor Laboratory Press). […] Extent of hybridization was determined by scanning with a prototype multi-frame CCD camera slides produced by Applied Precision, Inc. Images were processed by informatics and imported into the Inpharma database and analyzed using the MatLab data analysis package.

Series [1] relates to pathway originating at calcineurin. As to the kind of experiment: Genome-wide correlation of FK506 expression responses against combined Cyc A and methotrexate pathway responses (scaling parameter). The series is classed as cell-based, Saccharomyces cerevisiae. The conditions noted are these: location of the correlation peak versus scaling parameter applied to FK506 data. As for the experimental part: The gene expression measurements illustrated in FIGS. 8A-C were made as detailed below. To generate the cyclosporin dose response curves, an overnight starter culture of S.cerevisiae strain R563 (Genotype: Mat a ura3-52 lys2-801 ade2-101 trpl-Δ63 his3-Δ200 leu2-Δ1 his3::HIS3) was diluted into 200 ml of YAPD plus 10 mM CaCl2 medium (see, e.g., Ausubel et al., eds., 1996, Current Protocols in Molecular Biology, John Wiley & Sons, Inc., especially ch. 13) to an OD600 of 0.1 and grown at 30° C. with 300 rpm shaking. After a 30 min, cyclosporin A dissolved in ethanol was added to cultures at final concentrations of 60, 30, 15, 6 and 3 μg/ml. Control cultures were treated with the same volume of just ethanol. Growth was monitored by OD600 and cells were harvested at OD600=1.4+/−0.1 by centrifugation for 2 min at ambient temperature in a Sorvall RC5C+centrifuge in a SLA-1500 rotor. […]
In all cases, polyA^+ RNA was isolated by oligo-dT cellulose chromatography using two selections by standard protocols (see, e.g., Sambrook et al. 1989, Molecular Cloning A Laboratory Manual, Cold Spring Harbor Laboratory Press). […] Extent of hybridization was determined by scanning with a prototype multi-frame CCD camera slides produced by Applied Precision, Inc. Images were processed by informatics and imported into the Inpharma database and analyzed using the MatLab data analysis package. […]

Another series relates to wild type yeast cells. The conditions noted are these: at 10 micrograms/ml doxycycline, Gari et al. 1997; cited from earlier work.

The structures appear in SMILES notation.

Take `CN(Cc1cnc2nc(N)nc(N)c2n1)c1ccc(C(=O)N[C@@H](CCC(=O)O)C(=O)O)cc1` [methotrexate]: in the series with yeast, the growth defect was 50%. Further, the “Hill function parameter a” value in the series with yeast gene YOL031C (least squares fit of YOL031C expression response (log expression ratio amplitude)) is −0.61. Moreover, the “Hill function parameter n” value in the series on yeast gene YOL031C (least squares fit of YOL031C expression response to six methotrexate exposure levels) is listed as 2. Also, the “Hill function parameter log10(u0)” value in the series on yeast gene YOL031C (least squares fit of YOL031C expression response, methotrexate exposure levels 3-200 μm) was 1.26.
For `C=CC[C@@H]1/C=C(\C)C[C@H](C)C[C@H](OC)[C@H]2O[C@@](O)(C(=O)C(=O)N3CCCC[C@H]3C(=O)O[C@H](/C(C)=C/[C@@H]3CC[C@@H](O)[C@H](OC)C3)[C@H](C)[C@@H](O)CC1=O)[C@H](C)C[C@@H]2OC` [FK506], in series [1], the “approximate relative potency of FK506 and Cyc A” value is “approximately 63”.
Turning to `C[C@H]1c2cccc(O)c2C(=O)C2=C(O)[C@]3(O)C(=O)C(C(N)=O)=C(O)[C@@H](N(C)C)[C@@H]3[C@@H](O)[C@@H]21` [doxycycline], the “effect on the growth rate” value in the series on wild type yeast cells is listed as “no significant effect”.

The values above are taken from US6859735B1, “Computer systems for identifying pathways of drug action” (priority 1998, dated 2005).
